Data taken from PMC6957243 (Bioorganic & medicinal chemistry letters, 2014).

Columns and labels:
[1] = target: T1, rat TRPV1 heterologously expressed in Chinese hamster ovary (CHO) cells (Rattus norvegicus, UniProt O35433); assay: binding competition assay with [3H]RTX; conditions: respectively; for increase in binding affinity: 19 and 20 compared to (R)-5a and (S)-5a; for increases in binding affinity: 24 and 28 compared to 5b and 5c
[2] = target: T1, rat TRPV1 heterologously expressed in Chinese hamster ovary (CHO) cells; assay: functional 45Ca2+ uptake assay, antagonism of capsaicin; type: cell-based; conditions: 24 and 28 compared to 5b and 5c, respectively

T1 sequence (O35433 whole entry): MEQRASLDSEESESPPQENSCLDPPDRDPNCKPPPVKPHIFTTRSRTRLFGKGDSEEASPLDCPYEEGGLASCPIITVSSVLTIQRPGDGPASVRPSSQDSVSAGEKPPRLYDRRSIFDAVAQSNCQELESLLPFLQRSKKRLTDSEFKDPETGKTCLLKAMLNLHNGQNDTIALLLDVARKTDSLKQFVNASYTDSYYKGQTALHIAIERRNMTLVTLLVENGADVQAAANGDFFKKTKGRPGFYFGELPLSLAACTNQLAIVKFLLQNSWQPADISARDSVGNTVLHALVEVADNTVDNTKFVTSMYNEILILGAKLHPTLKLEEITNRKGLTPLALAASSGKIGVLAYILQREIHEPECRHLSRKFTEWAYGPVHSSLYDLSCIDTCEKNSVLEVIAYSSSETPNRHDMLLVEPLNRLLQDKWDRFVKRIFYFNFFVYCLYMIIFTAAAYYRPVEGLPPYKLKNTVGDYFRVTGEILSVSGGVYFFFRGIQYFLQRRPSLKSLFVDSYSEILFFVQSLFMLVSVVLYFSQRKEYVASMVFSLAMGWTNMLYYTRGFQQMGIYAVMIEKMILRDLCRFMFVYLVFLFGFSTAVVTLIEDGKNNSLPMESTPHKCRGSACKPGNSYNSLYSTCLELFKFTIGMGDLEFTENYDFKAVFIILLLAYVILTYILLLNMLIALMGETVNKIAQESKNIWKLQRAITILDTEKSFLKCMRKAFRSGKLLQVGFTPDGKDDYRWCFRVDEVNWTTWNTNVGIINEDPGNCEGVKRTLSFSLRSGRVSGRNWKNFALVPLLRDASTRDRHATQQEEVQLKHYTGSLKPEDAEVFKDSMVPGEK

| Structure (SMILES) | increase in binding affinity [1] [fold] | increases in binding affinity [1] [fold] | increases in antagonism [2] [fold] |
| --- | --- | --- | --- |
| C[C@@H](NC(=S)NC[C@@H](COC(=O)C(C)(C)C)Cc1ccccc1)c1ccc(NS(C)(=O)=O)cc1 [compound 20] | ~10 |  |  |
| C[C@@H](NC(=S)NC[C@H](COC(=O)C(C)(C)C)Cc1ccccc1)c1ccc(NS(C)(=O)=O)cc1 [compound 19] | ~10 |  |  |
| Cc1ccc(CC(CNC(=S)N[C@H](C)c2ccc(NS(C)(=O)=O)cc2)COC(=O)C(C)(C)C)cc1C (stereo partly drawn) [compound 24] |  | 5 | 10 |
| C[C@@H](NC(=S)NCC(COC(=O)C(C)(C)C)Cc1ccc(C(C)(C)C)cc1)c1ccc(NS(C)(=O)=O)cc1 (stereo partly drawn) [compound 28] |  | 6 | 4 |
